# A melting point compilation (Tetko et al.; mined from patent text by program, amines drawn as free bases though some values may be those of a salt)
row,Structure (SMILES),melting point [°C]
1,O=C(O)c1ccccc1OCCN1CCC(c2cn(CCC3COCCO3)c3ccccc23)CC1 (stereo not given),139 to 140
2,CCOC(=O)NC(=O)NC(=NC(=O)Nc1ccc(Cl)cc1)OC,140 to 142
3,CCOc1cc([N+](=O)[O-])ccc1NC(C)=O,164 to 165
4,N#Cc1cc(N2CCN(CCCCCC(=O)N3Cc4ccccc4C3)CC2)cc(C(F)(F)F)c1,128
5,CCCC(=O)c1cnc2c(OC)cccc2c1Nc1ccc(CO)cc1,187 to 189
6,CCCCCCCCCCC[C@H](O)C[C@@H]1OC(=O)[C@H]1CCCCCC,61 to 62
7,CNC(=O)NC1CC(C)(C)Cc2cc(C)cc(C)c21 (stereo not given),196 to 197
8,CCC1Cc2c(O)cc(OC)cc2C(=O)O1 (stereo not given),167 to 168
9,NS(=O)(=O)c1ccc(-c2cnn(Cc3ccc(F)c(F)c3)c(=O)c2-c2ccc(F)cc2)cc1,253 to 255
10,CC(C)(C)OC(=O)N[C@@H]1CCC(=O)OC1=O,117 to 119
11,NCCOc1ncc(Cl)c(N)c1Cl,115 to 116
12,CCOC(=O)c1ccc(NC(=O)C=Cc2ccc3ccccc3c2)cc1,173 to 175
13,O=C(NCC12CC3CC(CC(C3)C1)C2)c1cc(-c2ccccc2C(=O)O)ccc1Cl,228 to 230
14,CCCOc1ccc(S(=O)(=O)N2CCN(CC)CC2)cc1-c1nc2cc3nc[nH]c3cc2c(=O)[nH]1,194 to 196
15,OCC1OC(n2c(I)nc3cc(Cl)c(Cl)cc32)C(O)C1O (stereo not given),180 to 182
16,COC(=O)C(=O)c1ccccc1F,98 to 100
17,CCCCCN(CC(=O)OC(C)(C)C)C(=O)C(CCC(=O)OC)CS(=O)(=O)c1ccc2ccccc2c1 (stereo not given),85 to 87
18,CC(C)=CCN(C(=O)OC(C)(C)C)c1ccc(OC2CCN(C(=O)OC(C)(C)C)CC2)cc1,145 to 148
19,CC(C)(C)OC(=O)N1CCC(c2noc3c(C(F)(F)F)cccc23)CC1,111 to 113
20,CC(C)(C)c1cc(CCc2ccccc2NC(=O)NCCc2ccccn2)cc(C(C)(C)C)c1O,180
21,CCc1nc2ncnn2c(N)c1CCCCC(F)=C(F)F,199
22,CCOP(=O)(CC(Cc1ccccc1)NS(=O)(=O)c1ccc(C)cc1)OCC (stereo not given),86 to 89
23,CCOC(CNC(=N)NN1CCc2cc(Cl)ccc21)OCC,163 to 165
24,CCCc1c[nH]c(=O)[nH]c1=O,286 to 287
25,COc1ccc(C2CCCC(=O)N2c2ccc(OC)cc2)cc1 (stereo not given),108 to 109

row,Structure (SMILES),melting point [°C]
1,O=S(=O)(c1ccccc1)c1c[nH]c2ccc(CCN3CCN(Cc4ccccc4)CC3)cc12,150 to 153
2,CS(=O)(=O)c1ccc(-c2nc(C(F)(F)F)nc(N=[N+]=[N-])c2-c2ccc(F)cc2)cc1,285 to 288
3,O=C(O)CCC(O)c1ccc(-c2ccc(Cl)cc2)cc1 (stereo not given),134 to 135
4,COc1cc(C(=O)c2nc(NS(C)(=O)=O)c3ccccn23)ccc1[N+](=O)[O-],231
5,CCOC(=O)c1c(Cn2cncn2)nc2cc(OC)c(OC)cc2c1-c1ccc(O)c(O)c1,122 to 124
6,COc1cc(C=CC(CCc2ccco2)=NO)ccc1O,110 to 120
7,O=c1oc2c(c(O)c1C(c1ccccc1)C1CC1)CCCCCC2CC1CCCOC1 (stereo not given),89 to 95
8,COc1ccc(S(=O)(=O)C(C)(Cc2ccc(OCCN3CCCCCC3)cc2)C(=O)NO)cc1 (stereo not given),68
9,Cc1nnc(-c2ccc3occ(-c4cccc(F)c4F)c3c2)o1,112 to 113
10,CC(C)C[C@H]1C(=O)NC2CCC(=O)N21 (stereo not given in full),156 to 157
11,CCOC(=O)CC(=O)C=CNc1cc(C)no1,93 to 95
12,CC1CCN(C(=O)Oc2ccc(Oc3ccccc3)cc2F)CC1,43 to 46
13,CCOC(=O)CSc1nc(Cl)cc(NCCc2ccc(Cl)cc2)n1,68 to 70
14,CCNC(=O)n1nc(Oc2ccc([N+](=O)[O-])c(OCC)c2)cc1C,110 to 112
15,CCc1ccc2c(c1)C=Cc1oc(C)nc1C2c1cn(Cc2nc(C(=O)O)co2)c(=O)[nH]c1=S (stereo not given),210
16,Cc1oc(C=Cc2ccc(Cl)cc2)nc1CCl,121 to 122
17,COCCOc1ccc(N)cc1S(=O)(=O)O,> 250
18,O=C(O)COc1ccc(Cl)c2c(=O)c3ccccc3sc12,230 to 232
19,OCC(O)CNc1ncnc2c1ncn2C1OC(CO)C(O)C1O (stereo not given),164 to 165
20,Nc1cc(Br)c(Br)cc1N,189 to 190
21,COC(=O)C(C)=Cc1ccc(OCCCNc2ccc(Cl)cc2)cc1,62 to 64
22,O=c1c(-c2cccc(C(F)(F)F)c2)coc2cc(O)c(O)cc12,274 to 275
23,CN1CCN(NS(=O)(=O)c2cc([N+](=O)[O-])c(Cl)s2)CC1,91
24,COc1cc(OC)c2c(=O)[nH]c(-c3ccc(N4CCC(=O)CC4)cc3)nc2n1,> 350
25,O=C(CS(=O)Cc1cccnc1)C12CC3CC(CC(C3)C1)C2 (stereo not given),116 to 119

row,Structure (SMILES),melting point [°C]
1,CC(=O)C(Cl)=NNc1ccc(C)cc1,141 to 143
2,CCC(CC)c1ccc(C=O)c2nc(Oc3c(C)cc(Cl)cc3Cl)n(C)c12,148 to 149
3,CSC1=Nc2ccccc2Sc2nccn21,116 to 118
4,CCCC(NC(=O)Nc1ccc(Cl)cc1)P(=O)(c1ccccc1)c1ccccc1 (stereo not given),275 to 278
5,COc1ccc2c(-c3ccccc3F)noc2c1,101 to 103
6,CN1C(=O)CN(c2cccc(O)c2)NC1=O,95 to 96
7,Cc1ccc(Br)c2occc12,32 to 33
8,CC(C(=O)N(C)C)n1ccc(-c2cccc([N+](=O)[O-])c2)n1 (stereo not given),117 to 119
9,"OC(COc1ccc(F)c(F)c1)CN1CCC(NCc2nc3ccccc3s2)CC1 (single isomer, unassigned; (+))",65.8
10,CCOc1ccc2[nH]c(=O)n(C(C)(C)COC)c2c1,149
11,Cc1nc(N2CCN(Cc3ccccn3)C2=O)sc1C(=O)NCc1cccnc1,58 to 61
12,COc1ccc(S(=O)(=O)Nc2ccccc2NC(=O)c2cccs2)cc1,136 to 137
13,CC1(C)CC1C(=O)NC(=CCCC(=O)O)C(=O)O (stereo not given),163 to 165
14,CCc1nn2c(-c3cccnc3)ccnc2c1C#N,170 to 172
15,CNC(=S)N(C)c1cncc(C(F)(F)F)c1,86 to 90
16,CCn1c2cccc(C=O)c2c2c3ccccc3ccc21,90.5 to 91.5
17,Oc1c(Cl)cc(-c2cnn3c(O)ncnc23)cc1Cl,> 300
18,C[C@@H](O)[C@H]1C(=O)N(CC(=O)OC(C)(C)C)[C@@H]1C(=O)OC(C)(C)C,79 to 81
19,CN(C)C1(c2ccccc2)CCC(C(=O)c2cc3ccccc3n2C)(N2CCCC2)CC1 (stereo not given),212 to 218
20,COC(=O)Cn1nnnc1-c1cccc(C#N)c1,67 to 69
21,Cc1cccc2c1N(CC(=O)N1CC3CCC(CC3)C1)C(=O)C(NC(=O)Nc1cccc(-c3nnn[nH]3)c1)N=C2c1ccccc1F (stereo not given),210 to 213
22,Cc1ccc(S(=O)(=O)N(c2ccc(Cl)cc2C(N)=S)C(C)C)cc1,189 to 191
23,FC(F)(F)c1nnc2nc(-c3ccccc3)c3cc(Cl)ccc3n12,241 to 242
24,CC(C)C(=NO)c1ccc(Cl)cc1,91 to 117
25,N#CC12CC3CC(CC(Cl)(C3)C1)C2,156 to 157

row,Structure (SMILES),melting point [°C]
1,CCCCNC(=O)NS(=O)(=O)CCc1c(C2CC2)nn(C)c1-n1ccc2cc(Cl)cnc21,167 to 168
2,COc1cccc2c(CCCCN(CC3CC3)C3COc4c(F)ccc(C(N)=O)c4C3)coc12 (stereo not given),114 to 120
3,COC(=O)c1ccc(-c2ccc(OC)c(OC3CCCC3)c2)cc1,128 to 131
4,COC(=O)C(=Cc1ccc(OC)c(OCCc2ccccc2)c1)C(=O)OC,105 to 106
5,CN(C)c1ccc2c(c1)Sc1cc(N(C)C=O)ccc1N2C=O,139 to 143
6,CC(C)C(NC(=O)Cn1cc(Cc2ccc(F)cc2)cc(NC(=O)OCc2ccccc2)c1=O)C(=O)C(F)(F)F (stereo not given),66 to 72
7,CN1C(=O)CC[C@]2(C)c3ccc(SC(c4ccccc4)c4ccccc4)cc3CC[C@@H]12,102 to 104
8,O=C(O)C=CC(=O)c1ccc(Oc2cccc(Cl)c2)cc1,110 to 111
9,COc1ccccc1CN(CC(=O)OC(C)(C)C)S(=O)(=O)c1ccc2c(Cl)cnc(Cl)c2c1,106 to 108
10,O=C1CCC(N2Cc3c(NCc4ccco4)cccc3C2=O)C(=O)N1 (stereo not given),248 to 250
11,CC(C)N1CCN(CCN2CCN(c3cn(-c4ccc(F)cc4)c4cc(Cl)ccc34)CC2)C1=O,176 to 177
12,CC1Cc2cc3c(cc2C(c2ccc(Cl)cc2)=NN1c1nccs1)OCO3 (stereo not given),116 to 117
13,N=c1sc2cc(OC(F)(F)F)ccc2n1CCSc1ccccn1,104
14,CCC(=O)Nc1cc(-c2c(-c3cccc(Cl)c3)nc3cccnn23)ccn1,192 to 193
15,O=C(NC(=O)c1c(Cl)cccc1Cl)Nc1ccc(OC(F)(F)F)cc1,202
16,O=C(O)CCc1cc2cc(Cl)ccc2n1S(=O)(=O)c1ccc2c(c1)CCN2,157
17,COc1cc(COc2ccc(S(=O)(=O)c3ccc(C)nc3Nc3c(C)cc(C)cc3C)cc2)cc(OC)c1,107 to 109
18,N#CNC(=N)NC1CCCc2ccccc21 (stereo not given),153 to 155
19,Cc1ccc(-c2ccnc3c(C(=O)c4cccs4)cnn23)cc1NC(=O)CC(C)C,185 to 187
20,CC(C)(C)c1ccccc1N1CCN(C(=O)C2CCC(=O)N2Cc2ccccc2)CC1 (stereo not given),164
21,O=Cc1ccccc1-c1noc2cc(Cl)ccc12,116 to 117
22,Cc1cccc(NC(=O)NCC(=O)N(CC(=O)OC(C)(C)C)c2ccccc2C(=O)N(C)c2ccccc2)c1,145
23,CCCN1CCC(c2cccc(C(N)=O)c2)CC1,182
24,Cc1ccc(Cl)cc1NC(=S)n1c(C)c(C)c2ccccc21,115
25,"CN1C(=O)CCC2(C)c3ccc(Sc4cccc5ccccc45)cc3CCC12 (single isomer, unassigned; (+))",161 to 162
